Values after ≈ are worked out from the molar mass of the structure shown. Structures can show the parent of a compound that is named as a salt. Where two headings read alike, the source gives them in different places.
Columns and labels:
Type in all cases: cell-based
[1] = system: Enterobacter cloacae P99-; assay: microbe, parasite or virus in culture
Text: (§1) The pharmaceutically acceptable carbapenem compounds of the present invention are useful antibacterial agents having a broad spectrum of activity in vitro against standard laboratory microorganisms, both Gram-negative and Gram-positive, which are used to screen for activity against pathogenic bacteria. The antibacterial spectrum and potency of a particular compound may be determined in a standard test system. In particular the carbapenems of the present invention show good stability to beta-lactamases and in general particularly good pharmacokinetics, especially as regards half life. In general compounds show significant improvement over imipenem.
(§2) The following results were obtained for representative compounds on a standard in vitro test system using Diagnostic Sensitivity Test. The antibacterial activity is described in terms of the minimum inhibitory concentration (MIC) determined by the agar-dilution technique with an inoculum size of 10^4 CFU/spot.

B. fragilis AMP-S = assay: MIC by agar-dilution technique, Diagnostic Sensitivity Test; conditions: Bacteroides fragilis, inoculum 10^4 CFU/spot
Text: as §1, §2

P. morganii I + 001 = assay: as above; conditions: Morganella morganii
Text: as §1, §2

E. coli DCO = assay: as above; conditions: Escherichia coli, inoculum 10^4 CFU/spot
Text: as §1, §2

S. aureus Oxford = assay: as above; conditions: Staphylococcus aureus, inoculum 10^4 CFU/spot
Text: as §1, §2

[2] = system: Enterobacter cloacae P99+; assay: as above
Text: as §1, §2

D Morganii DR 062 = assay: as above
Text: as §1, §2

B. fragilis AMP-R = assay: as above; conditions: Bacteroides fragilis, inoculum 10^4 CFU/spot
Text: as §1, §2

[3] = D Morganii DR 062, agar-dilution, inoculum 10^4 CFU/spot, read-out: MIC
[4] = P. morganii I + 001, agar-dilution, inoculum 10^4 CFU/spot, read-out: MIC

Q: Which MIC [1] does the source give for `COc1ccc(NC(=O)[C@@H]2C[C@H](SC3=C(C(=O)O)N4C(=O)[C@H]([C@@H](C)O)[C@H]4[C@H]3C)CN2)c(C(=O)O)c1` [Example 31, (1R,5S,6S,8R,2'S,4'S)-2-(2-(2-Carboxy-4-methoxyphenylcarbamoylpyrrolidin-4-ylthiol)-6-(1-hydroxyethyl)-1-methylcarbapenem-3-carboxylic acid, dipotassium salt] here?
A: 0.03 µg/mL

Q: And the MIC (B. fragilis AMP-S)?
A: 0.25 µg/mL

Q: And the MIC (P. morganii I + 001)?
A: 0.03 µg/mL

Q: And the MIC (E. coli DCO)?
A: 0.02 µg/mL

Q: What about the MIC (S. aureus Oxford) of the same molecule?
A: 0.13 µg/mL

Q: What about the MIC [2] of the same molecule?
A: 1 µg/mL

Q: What about the MIC (D Morganii DR 062; [3]) of the same molecule?
A: 0.06 µg/mL

Q: And the MIC (B. fragilis AMP-R)?
A: 0.25 µg/mL

Q: What does the source list for `C[C@@H](O)[C@H]1C(=O)N2C(C(=O)O)=C(S[C@@H]3CN[C@H](C(=O)Nc4ccccc4C(=O)O)C3)[C@H](C)[C@H]12` [Example 5, (1R,5S,6S,8R,2'S,4'S)-2-(2-(2-Carboxyphenylcarbamoyl)pyrrolidin-4-ylthio)-6-(1-hydroxyethyl)-1-methylcarbapenem-3-carboxylic acid]?
A: MIC [1]: 0.06 µg/mL (≈ 0.126 µM); MIC (B. fragilis AMP-S): 0.25 µg/mL (≈ 0.526 µM); MIC (P. morganii I + 001): 0.03 µg/mL (≈ 0.0631 µM); MIC (E. coli DCO): 0.03 µg/mL (≈ 0.0631 µM); MIC (S. aureus Oxford): 0.06 µg/mL (≈ 0.126 µM); MIC [2]: 1 µg/mL (≈ 2.1 µM); MIC (D Morganii DR 062): 0.03 µg/mL (≈ 0.0631 µM); MIC (B. fragilis AMP-R): 0.25 µg/mL (≈ 0.526 µM)

Q: `C[C@@H](O)[C@H]1C(=O)N2C(C(=O)O)=C(S[C@@H]3CN[C@H](C(=O)Nc4ccc(C(=O)O)cc4C(=O)O)C3)[C@H](C)[C@H]12` [Example 13, (1R,5S,6S,8R,2'S,4'S)-2-(2-(2,4-Dicarboxyphenylcarbamoyl)pyrrolidin-4-ylthio)-6-(1-hydroxyethyl)-1-methylcarbapenem-3-carboxylic acid] was tested. Which MIC [1] did it give?
A: 0.03 µg/mL (≈ 0.0577 µM)

Q: What about the MIC (B. fragilis AMP-S) of the same molecule?
A: 0.13 µg/mL (≈ 0.25 µM)

Q: What about the MIC (P. morganii I + 001; [4]) of the same molecule?
A: 0.01 µg/mL

Q: What about the MIC (E. coli DCO) of the same molecule?
A: 0.02 µg/mL (≈ 0.0385 µM)

Q: What about the MIC (S. aureus Oxford) of the same molecule?
A: 0.25 µg/mL (≈ 0.481 µM)

Q: What about the MIC [2] of the same molecule?
A: 2 µg/mL (≈ 3.85 µM)

Q: What about the MIC (D Morganii DR 062; [3]) of the same molecule?
A: 0.02 µg/mL (≈ 0.0385 µM)

Q: And the MIC (B. fragilis AMP-R)?
A: 0.5 µg/mL (≈ 0.962 µM)

Q: How did the MIC [1] turn out when `CO/N=C(\C(=O)N[C@@H]1C(=O)N2C(C(=O)O)=C(CSc3nc(=O)c(=O)[nH]n3C)CS[C@H]12)c1csc(N)n1` [ceftriaxone, reference compound] was run?
A: 0.06 µg/mL (≈ 0.108 µM)

Q: And the MIC (B. fragilis AMP-S)?
A: 2 µg/mL (≈ 3.61 µM)

Q: And the MIC (P. morganii I + 001; [4])?
A: 0.01 µg/mL

Q: And the MIC (E. coli DCO)?
A: 0.03 µg/mL (≈ 0.0541 µM)

Q: And the MIC (S. aureus Oxford)?
A: 2 µg/mL (≈ 3.61 µM)

Q: What about the MIC [2] of the same molecule?
A: 32 µg/mL (≈ 57.7 µM)

Q: What about the MIC (D Morganii DR 062; [3]) of the same molecule?
A: 1 µg/mL (≈ 1.8 µM)

Q: And the MIC (B. fragilis AMP-R)?
A: > 128 µg/mL

Q: Which results are given for `C[C@@H](O)[C@H]1C(=O)N2C(C(=O)O)=C(S[C@@H]3CN[C@H](C(=O)Nc4ccc(C(=O)O)cc4O)C3)[C@H](C)[C@H]12` [Example 1, (1R,5S,6S,8R,2'S,4'S)-2-(2-(4-Carboxy-2-hydroxyphenylcarbamoyl)pyrrolidin-4-ylthio)-6-(1-hydroxyethyl)-1-methylcarbapenem-3-carboxylic acid]?
A: MIC [1]: 0.01 µg/mL (≈ 0.0203 µM); MIC (B. fragilis AMP-S): 0.25 µg/mL (≈ 0.509 µM); MIC (P. morganii I + 001; [4]): 0.02 µg/mL; MIC (E. coli DCO): 0.01 µg/mL (≈ 0.0203 µM); MIC (S. aureus Oxford): 0.13 µg/mL (≈ 0.264 µM); MIC [2]: 0.25 µg/mL (≈ 0.509 µM); MIC (D Morganii DR 062; [3]): 0.02 µg/mL (≈ 0.0407 µM); MIC (B. fragilis AMP-R): 0.5 µg/mL (≈ 1.02 µM)

Q: Which MIC [1] does the source give for `C[C@@H](O)[C@H]1C(=O)N2C(C(=O)O)=C(S[C@@H]3CN[C@H](C(=O)Nc4cccc(C(=O)O)c4C(=O)O)C3)[C@H](C)[C@H]12` [Example 4, (1R,5S,6S,8R,2'S,4'S)-2-(2-(2,3-Dicarboxyphenylcarbamoyl)pyrrolidin-4-ylthio)-6-(1-hydroxyethyl)-1-methylcarbapenem-3-carboxylic acid] here?
A: 0.01 µg/mL (≈ 0.0192 µM)

Q: And the MIC (B. fragilis AMP-S)?
A: 0.13 µg/mL (≈ 0.25 µM)

Q: What about the MIC (P. morganii I + 001) of the same molecule?
A: 0.03 µg/mL (≈ 0.0577 µM)

Q: And the MIC (E. coli DCO)?
A: 0.02 µg/mL (≈ 0.0385 µM)

Q: What about the MIC (S. aureus Oxford) of the same molecule?
A: 0.25 µg/mL (≈ 0.481 µM)

Q: What about the MIC [2] of the same molecule?
A: 1 µg/mL (≈ 1.92 µM)

Q: What about the MIC (D Morganii DR 062) of the same molecule?
A: 0.03 µg/mL (≈ 0.0577 µM)

Q: And the MIC (B. fragilis AMP-R)?
A: 0.5 µg/mL (≈ 0.962 µM)

Q: Which results are given for `C[C@@H](O)[C@H]1C(=O)N2C(C(=O)O)=C(S[C@@H]3CN[C@H](C(=O)Nc4cc(C(=O)O)ccc4O)C3)[C@H](C)[C@H]12` [Example 2, (1R,5S,6S,8R,2'S,4'S)-2-(2-(5-Carboxy-2-hydroxyphenylcarbamoyl)pyrrolidin-4-ylthio)-6-(1-hydroxyethyl)-1-methylcarbapenem-3-carboxylic acid]?
A: MIC [1]: 0.01 µg/mL (≈ 0.0203 µM); MIC (B. fragilis AMP-S): 0.25 µg/mL (≈ 0.509 µM); MIC (P. morganii I + 001; [4]): 0.06 µg/mL; MIC (E. coli DCO): 0.03 µg/mL (≈ 0.061 µM); MIC (S. aureus Oxford): 0.13 µg/mL (≈ 0.264 µM); MIC [2]: 1 µg/mL (≈ 2.03 µM); MIC (D Morganii DR 062; [3]): 0.06 µg/mL (≈ 0.122 µM)

Reference: patent US5541178A, “Carbapenem antibiotic compounds” (Zeneca Limited, priority 1991, dated 1996)
